Reference: patent US9567586B2, “EpCAM aptamer for detection of cancer stem cells” (DEAKIN UNIVERSITY, priority 2012, dated 2017)

Experiments:
[1] = molecular target: T1, EpCAM (Homo sapiens, UniProt P16422); assay: Immunofluorescence staining of paraffin embedded xenograft tumour sections; set-up: from tissue; host or cells: xenograft tumours of T47D, MCF7, MDA-MB-231, HT-29 and U118MG cells grown in BALB/c-Foxn1 nu mice, formalin-fixed and paraffin-embedded; key to Quantification of anti-EpCAM staining by immunofluorescence: ‘−’ no staining; ‘+’ faint incomplete staining in >10% of cells; ‘++’ moderate complete membrance staining; ‘+++’ strong complete membrance staining
T1 sequence (P16422 24-314): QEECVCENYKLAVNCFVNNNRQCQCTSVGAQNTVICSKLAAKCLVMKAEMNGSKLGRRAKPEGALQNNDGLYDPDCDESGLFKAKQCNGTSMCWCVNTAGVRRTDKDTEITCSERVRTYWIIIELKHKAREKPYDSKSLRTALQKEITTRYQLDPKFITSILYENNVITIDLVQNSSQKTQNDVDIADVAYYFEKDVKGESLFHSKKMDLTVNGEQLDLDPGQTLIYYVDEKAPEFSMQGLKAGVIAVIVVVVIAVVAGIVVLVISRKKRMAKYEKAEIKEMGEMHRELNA
Procedure: (§1) A: Immunofluorescence staining of breast cancer (T47D, MCF7 and MDA-MB-231), colon cancer (HT-29) and glioblastoma (U118MG) xenograft tumours by EpCAM aptamers, DT3 and 23, control aptamer and the anti-EpCAM antibody, 323/A3 (Blue: nuclei; Red: EpCAM positive staining). B: Immunohistochemistry was performed with the anti-EpCAM antibody BerEP4, and all tumours were evaluated by haematoxylin and eosin staining for morphological confirmation. Aptamer staining was performed for 15 min at 37° C., while 323/A3 staining was performed at 4° C. overnight and BerEP4 was performed at room temperature for 20 min. All fluorescent images were taken at 60×, while light microscopy images were taken at 20×. Images are representative of at least three separate experiments. Scale bar: 50 μm.
(§2) The cell lines of human origin used in this study were purchased from American type Culture Collection. They were glioblastoma U118-MG; breast carcinoma MCF-7, MDA-MB-231 and T47D; and colorectal adenocarcinoma HT-29. Cells were grown and maintained in culture with Dulbecco's Modified Eagle medium (DMEM) (Invitrogen, Victoria, Australia) supplemented with 10% fetal calf serum (MCF-7, T47D, HT-29, and U118-MG), or Roswell Park Memorial Institute 1640 (RPMI 1640) (Invitrogen) with 10% fetal calf serum (MDA-MB-231). Cells were maintained at 37 ^CC in a humidified atmosphere containing 5% CO2. For xenograft studies, single cell suspensions were harvested by trypsinisation, washed with PBS and resuspended in 0.1 mL of PBS for implantation in BALB/c-Foxn1 ^nu female mice. Once tumours had reached approximately […], they were excised and fixed in 10% neutral buffered formalin prior to processing and embedding. All animal procedures were approved by Deakin University Animal Welfare Committee, and in accordance with the Australian Code of Practice for the Care and Use of Animals for Scientific Purposes.
(§3) Sections from each of the xenograft tumours were cut at 4 μm onto polylysine coated slides prior to deparaffinisation with Histoclear and rehydration through graded ethanol. Heat induced antigen retrieval was performed in a microwave oven using Tris-EDTA buffer (10 mM Tris, 1 mM EDTA, 0.05% Tween 20, pH 9.0) for 20 min and the slides were allowed to cool prior to blocking with 0.1 mg/mL tRNA, 0.1 mg/mL salmon sperm DNA and 1 mg/mL bovine serum albumin (BSA) in phosphate buffered saline (PBS) for 20 min. Following the blocking step, slides were washed in PBS containing 0.1% Tween 20 twice for 2 min prior to incubation with either aptamer or antibody. Aptamers were prepared as previously described (Shigdar S et al, supra). Briefly, aptamers were heated to 85° C. for 5 min, allowed to cool to room temperature for 10 min and then heated at 37° C. for 15 min. Slides were incubated with aptamers at 100 nM concentration in a solution of PBS containing 5 mM MgCl2, 0.1 mg/mL tRNA, 1 mg/mL BSA, 10% dextran sulphate and 500 μg/mL heparin for 15 min at 37° C. The slides were then washed three times for 5 min each prior to incubation with Bisbenzimide Hoechst 33342 (3 μg/mL) for 10 min. Slides were then mounted using VECTASHIELD and coverslipped prior to visualisation using a Fluoview FV10i laser scanning confocal microscope. All images used for direct comparison were taken with identical exposure parameters and are presented without any digital contrast alteration or background subtraction. Antibody staining was performed using the anti-EpCAM antibody 323/A3 (ab8601, Abcam). Slides were washed and blocked following the same protocol as previously described prior to antibody staining. The antibody was prepared at a concentration of 10 μg/mL and the slides were incubated overnight at 4° C. Slides were then washed three times for 5 min followed by incubation with a goat-anti-mouse IgG AlexaFluor 647 conjugate (Invitrogen) at a concentration of 10 μg/mL for 2 h prior to washing, staining with Bisbenzimide Hoechst 33342, and coverslipping. […]

[2] = test system: HT-29 tumor sphere; assay: Penetration and retention in HT-29 tumor sphere (confocal microscopy); assay type: cell-based, human; conditions: for penetration into tumor sphere: 100 nM, 0.5-4 h incubation, sphere ~300-400 μm; for fluorescence signal retained in tumor sphere: 4 h incubation, wash, further 24 h in culture medium
Procedure: HT-29 or HEK293T cells were cultured in stem cell culture medium (DMEM/F12 with 20 ng/ml EGF and FGF and B27). […] After incubating for 0.5, 1, 2 or 4 h, the spheres were washed twice with PBS and imaged via fluorescence confocal microscopy. A phase contrast image of the sphere was also taken for each sample. Panel A fluorescence image for antibody EpCAM, Panel B phase contrast image for tumor sphere. Panel C: fluorescence image for aptamer EpCAM 23, Panel D: phase contrast image for tumor sphere. Panel E: fluorescence image aptamer control, Panel F: phase contrast image for tumor sphere.
Tumour spheres were incubated with EpCAM antibody, aptamer-23 or control aptamer for 4 h. After washing with PBS twice, the tumor spheres were incubated with the culture medium for a further 24 h followed by confocal microscopy. Panel A: fluorescence image for antibody or aptamer. Panel B: phase contrast image for tumour sphere.
To study the ability of EpCAM aptamer or antibody to penetrate tumors, the inventors used a three-dimensional in vitro tumor sphere model. […] After incubating for the indicated time, the spheres were washed twice with PBS and imaged via fluorescence confocal microscopy. A phase contrast image of the sphere was also taken for each sample. […] A retention study was performed whereby the tumour spheres were incubated with EpCAM antibody, aptamer-23 or control aptamer for 4 h, after washing with PBS twice, the tumor spheres were incubated with the culture medium for a further 24 h followed by confocal microscopy.

[3] = test system: EpCAM; assay: Immunofluorescence staining of paraffin embedded xenograft tumour sections; set-up: species or system human; key to Quantification of anti-EpCAM staining by immunofluorescence: ‘−’ no staining; ‘+’ faint incomplete staining in >10% of cells; ‘++’ moderate complete membrance staining; ‘+++’ strong complete membrance staining; conditions: for Quantification of anti-EpCAM staining by immunofluorescence: U118MG xenograft
Procedure: as §1, §2
as §3, with “Abcam).” for “Abcam). Slides were washed and blocked following the same protocol as previously described prior to antibody staining. The antibody was prepared at a concentration of 10 μg/mL and the slides were incubated overnight at 4° C. Slides were then washed three times for 5 min followed by incubation with a goat-anti-mouse IgG AlexaFluor 647 conjugate (Invitrogen) at a concentration of 10 μg/mL for 2 h prior to washing, staining with Bisbenzimide Hoechst 33342, and coverslipping.”

Substance: 5′-ACGUAUCCCUUUUCGCGUA-3′ (RNA aptamer, fluorescent dye conjugate used, modifications not given here, further chemistry not given here) [compound 23]
- staining of HT-29 xenograft sections (in words) ([1]; HT-29 colorectal cancer xenograft): strong positive staining
- Quantification of anti-EpCAM staining by immunofluorescence ([1]; HT-29 xenograft): +++
- Quantification of anti-EpCAM staining by immunofluorescence ([1]; MCF7 xenograft): ++
- Quantification of anti-EpCAM staining by immunofluorescence ([1]; MDA-MB-231 xenograft): + (‘+’ faint incomplete staining in >10% of cells)
- detection of EpCAM in MDA-MB-231 xenograft tumour (in words) ([1]; MDA-MB-231 xenograft, low EpCAM expression): successfully detect EpCAM
- Quantification of anti-EpCAM staining by immunofluorescence ([1]; T47D xenograft): +++
- staining of human breast cancer xenografts (in words) ([1]; T47D, MCF7 and MDA-MB-231 xenografts, 100 nM, 15 min, 37° C., dextran sulphate and heparin): highly sensitive staining
- penetration into tumor sphere [2]: could penetrate into the core or center of the tumor sphere
- fluorescence signal retained in tumor sphere [2]: clearly detectable signal
- retention by the tumor cells ([2]; after 4 h incubation and wash): at least 24 hours
- Quantification of anti-EpCAM staining by immunofluorescence [3]: −
- staining of U118MG xenograft (in words) ([3]; U118MG xenograft that does not express EpCAM): no staining detectable

Substance: 5′-DY647-mGCmGACUmGmGUUmACCCmGmGUCmGdT-3′ (GCGACUGGUUACCCGGUCGN; 5' DY647, 2'-O-methyl, 3' dT, further chemistry not given here) [Control]
- Quantification of anti-EpCAM staining by immunofluorescence ([1]; HT-29 xenograft): −
- Quantification of anti-EpCAM staining by immunofluorescence ([1]; MCF7 xenograft): −
- Quantification of anti-EpCAM staining by immunofluorescence ([1]; MDA-MB-231 xenograft): −
- Quantification of anti-EpCAM staining by immunofluorescence ([1]; T47D xenograft): −
- penetration into tumor sphere [2]: only limited non-specific binding
- fluorescence signal retained in tumor sphere [2]: very weak signal
- Quantification of anti-EpCAM staining by immunofluorescence [3]: −
